Data from ChEMBL document CHEMBL1764984 (J Med Chem, 2011).
In brackets after ≈: the same amount, converted by molar mass.

Tests used:
[1] = target: Casein kinase I isoform epsilon (Homo sapiens, UniProt P49674); conditions: 10 uM
Description: Inhibition of CSNK1epsilon at 10 uM

[2] = Cmax in cynomolgus monkey at 5 mg/kg, po; assay type: ADME, organism-based, Macaca fascicularis; parameters: dose 5 mg/kg, route oral; conditions: in vivo
[3] = target: Cyclin-G-associated kinase (Homo sapiens, UniProt O14976); test: Inhibition of GAK
[4] = AUC (0 to last) in Beagle dog at 5 mg/kg, po; assay type: ADME, organism-based, Canis lupus familiaris; parameters: dose 5 mg/kg, route oral, time 0 - last; conditions: plasma
Cytochrome P450 1A2 = Cytochrome P450 1A2 (Homo sapiens, UniProt P05177); test: Inhibition of human CYP1A2; assay type: ADME
[5] = AUC (0 to last) in Hanover-Wistar rat at 5 mg/kg, po after 24 hrs; assay type: ADME, organism-based; parameters: dose 5 mg/kg, route oral, time 0 - last; conditions: plasma
[6] = Half life in Beagle dog at 5 mg/kg, po; assay type: ADME, organism-based, Canis lupus familiaris; parameters: dose 5 mg/kg, route oral; conditions: in vivo
[7] = Permeability of the compound from basolateral to apical side of human Caco2 cells at 10 uM after 21 days; assay type: ADME, cell-based; conditions: Caco-2, read-out: permeability
[8] = target: Serine/threonine-protein kinase 36 (Homo sapiens) (UniProt Q9NRP7); conditions: 10 uM
Description: Inhibition of STK36 at 10 uM

Cytochrome P450 3A4 = Cytochrome P450 3A4 (Homo sapiens, UniProt P08684); test: Inhibition of human CYP3A4; assay type: ADME
Rattus norvegicus [9] = test: Inhibition of LPS-induced TNFalpha production in rat serum at 3 mg/kg, po administered 30 mins before LPS challenge measured after […] by ELISA; assay type: functional
[10] = target: T1, Epithelial discoidin domain-containing receptor 1 (Homo sapiens, UniProt Q08345); test: Inhibition of DDR1
T1 sequence (Q08345 whole entry, the tested form may be a part): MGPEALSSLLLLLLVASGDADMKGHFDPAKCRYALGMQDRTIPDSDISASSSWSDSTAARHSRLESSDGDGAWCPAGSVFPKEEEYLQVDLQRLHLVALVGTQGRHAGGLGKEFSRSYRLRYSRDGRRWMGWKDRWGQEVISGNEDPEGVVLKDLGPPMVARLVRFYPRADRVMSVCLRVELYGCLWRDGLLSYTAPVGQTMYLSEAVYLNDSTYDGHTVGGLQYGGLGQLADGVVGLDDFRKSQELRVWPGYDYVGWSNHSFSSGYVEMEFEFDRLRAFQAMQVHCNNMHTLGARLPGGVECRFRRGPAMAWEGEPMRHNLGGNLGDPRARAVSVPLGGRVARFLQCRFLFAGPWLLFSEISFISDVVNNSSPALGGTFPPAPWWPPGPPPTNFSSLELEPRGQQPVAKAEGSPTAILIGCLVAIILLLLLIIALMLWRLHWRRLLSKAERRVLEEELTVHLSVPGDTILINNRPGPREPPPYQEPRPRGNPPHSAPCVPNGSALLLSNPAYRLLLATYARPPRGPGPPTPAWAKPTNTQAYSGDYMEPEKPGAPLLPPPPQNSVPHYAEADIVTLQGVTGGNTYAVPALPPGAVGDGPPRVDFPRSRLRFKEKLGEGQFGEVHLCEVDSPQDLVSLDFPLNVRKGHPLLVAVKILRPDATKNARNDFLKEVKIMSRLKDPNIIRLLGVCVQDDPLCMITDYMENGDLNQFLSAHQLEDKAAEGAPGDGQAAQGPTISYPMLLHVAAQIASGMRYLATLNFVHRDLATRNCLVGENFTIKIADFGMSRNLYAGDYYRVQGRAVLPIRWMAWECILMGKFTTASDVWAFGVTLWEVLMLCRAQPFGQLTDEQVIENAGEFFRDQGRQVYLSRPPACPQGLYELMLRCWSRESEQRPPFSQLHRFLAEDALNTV

[11] = AUC (0 to last) in cynomolgus monkey at 5 mg/kg, po after 72 hrs; assay type: ADME, organism-based, Macaca fascicularis; parameters: dose 5 mg/kg, route oral, time 0 - last; conditions: plasma
[12] = Permeability of the compound from apical to basolateral side of human Caco2 cells at 10 uM after 21 days; assay type: ADME, cell-based; conditions: Caco-2, read-out: permeability
[13] = target: Serine/threonine-protein kinase NLK (Homo sapiens) (UniProt Q9UBE8); test: Inhibition of NLK at 10 uM
Cytochrome P450 2C19 = Cytochrome P450 2C19 (Homo sapiens, UniProt P33261); test: Inhibition of human CYP2C19; assay type: ADME
[14] = Clearance in Hanover-Wistar rat at 5 mg/kg, iv; assay type: ADME, organism-based; parameters: dose 5 mg/kg, route intravenous; conditions: in vivo
[15] = target: Mitogen-activated protein kinase 11 (Homo sapiens, UniProt Q15759); test: Inhibition of P38beta at 10 uM
Chain of Mitogen-activated protein kinase 11 (Q15759 whole entry): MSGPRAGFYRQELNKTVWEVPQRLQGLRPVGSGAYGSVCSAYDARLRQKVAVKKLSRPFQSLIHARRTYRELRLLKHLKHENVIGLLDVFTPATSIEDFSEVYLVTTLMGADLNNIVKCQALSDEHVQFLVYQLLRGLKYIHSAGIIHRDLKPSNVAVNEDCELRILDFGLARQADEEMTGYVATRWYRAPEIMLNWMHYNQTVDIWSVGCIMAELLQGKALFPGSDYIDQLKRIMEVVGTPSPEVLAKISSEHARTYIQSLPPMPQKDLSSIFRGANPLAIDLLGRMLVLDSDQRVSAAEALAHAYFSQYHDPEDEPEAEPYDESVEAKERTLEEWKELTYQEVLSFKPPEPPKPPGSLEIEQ

[16] = Cmax in Hanover-Wistar rat at 5 mg/kg, po; assay type: ADME, organism-based; parameters: dose 5 mg/kg, route oral; conditions: in vivo
[17] = Volume of distribution at steady state in cynomolgus monkey at 5 mg/kg, iv; assay type: ADME, organism-based, Macaca fascicularis; parameters: dose 5 mg/kg, route intravenous; conditions: in vivo, read-out: Vdss
[18] = target: T2, Ribosomal protein S6 kinase alpha-3 (Homo sapiens, UniProt P51812); test: Inhibition of RSK2 at 10 uM
T2 sequence (P51812 whole entry): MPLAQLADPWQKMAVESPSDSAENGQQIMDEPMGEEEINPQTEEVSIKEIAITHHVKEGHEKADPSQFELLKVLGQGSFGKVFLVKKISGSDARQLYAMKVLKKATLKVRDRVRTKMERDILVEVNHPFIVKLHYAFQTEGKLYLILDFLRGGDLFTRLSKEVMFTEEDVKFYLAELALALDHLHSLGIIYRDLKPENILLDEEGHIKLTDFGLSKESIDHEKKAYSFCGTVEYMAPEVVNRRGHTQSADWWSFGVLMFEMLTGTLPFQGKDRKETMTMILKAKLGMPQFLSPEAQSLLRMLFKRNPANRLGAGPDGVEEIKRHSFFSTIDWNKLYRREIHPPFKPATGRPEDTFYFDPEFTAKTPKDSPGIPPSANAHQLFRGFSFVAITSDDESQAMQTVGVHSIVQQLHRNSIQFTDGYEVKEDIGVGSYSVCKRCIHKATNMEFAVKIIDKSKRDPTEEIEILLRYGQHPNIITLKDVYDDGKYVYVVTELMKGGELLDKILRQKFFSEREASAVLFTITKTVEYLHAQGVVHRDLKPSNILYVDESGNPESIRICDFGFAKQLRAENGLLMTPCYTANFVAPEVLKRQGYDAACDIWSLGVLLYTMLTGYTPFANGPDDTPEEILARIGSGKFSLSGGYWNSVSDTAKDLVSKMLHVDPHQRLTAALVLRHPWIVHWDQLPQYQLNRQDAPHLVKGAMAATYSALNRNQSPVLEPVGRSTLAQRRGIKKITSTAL

[19] = target: Mitogen-activated protein kinase 10 (Homo sapiens, UniProt P53779); conditions: 10 uM
Description: Inhibition of JNK3 at 10 uM

Rattus norvegicus [20] = test: Inhibition of TNF-alpha-induced IL-6 production in po dosed rat plasma administered 30 mins before TNFalpha challenge measured after 2 hrs by ELISA; assay type: functional, organism-based
[21] = target: T3, Atypical kinase COQ8A, mitochondrial (Homo sapiens, UniProt Q8NI60); conditions: 10 uM
Target sequence in this assay (Q8NI60 163-647 limits assumed): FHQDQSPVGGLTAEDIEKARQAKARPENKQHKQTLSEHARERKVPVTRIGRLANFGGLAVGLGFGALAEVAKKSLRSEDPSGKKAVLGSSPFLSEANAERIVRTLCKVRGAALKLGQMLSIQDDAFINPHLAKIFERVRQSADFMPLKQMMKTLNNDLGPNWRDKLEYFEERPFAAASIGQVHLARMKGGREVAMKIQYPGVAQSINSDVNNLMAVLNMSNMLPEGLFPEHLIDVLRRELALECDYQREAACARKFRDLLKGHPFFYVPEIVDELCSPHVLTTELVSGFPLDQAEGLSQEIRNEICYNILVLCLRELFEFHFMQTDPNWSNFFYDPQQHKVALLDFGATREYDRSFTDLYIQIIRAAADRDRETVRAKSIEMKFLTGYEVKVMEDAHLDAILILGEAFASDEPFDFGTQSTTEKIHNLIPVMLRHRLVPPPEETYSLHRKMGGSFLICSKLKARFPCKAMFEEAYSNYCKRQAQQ
Description: Inhibition of ADCK3 at 10 uM

[22] = target: Ribosomal protein S6 kinase alpha-4 (Homo sapiens, UniProt O75676); test: Inhibition of RSK4 at 10 uM
Chain of Ribosomal protein S6 kinase alpha-4 (O75676 whole entry, looked up): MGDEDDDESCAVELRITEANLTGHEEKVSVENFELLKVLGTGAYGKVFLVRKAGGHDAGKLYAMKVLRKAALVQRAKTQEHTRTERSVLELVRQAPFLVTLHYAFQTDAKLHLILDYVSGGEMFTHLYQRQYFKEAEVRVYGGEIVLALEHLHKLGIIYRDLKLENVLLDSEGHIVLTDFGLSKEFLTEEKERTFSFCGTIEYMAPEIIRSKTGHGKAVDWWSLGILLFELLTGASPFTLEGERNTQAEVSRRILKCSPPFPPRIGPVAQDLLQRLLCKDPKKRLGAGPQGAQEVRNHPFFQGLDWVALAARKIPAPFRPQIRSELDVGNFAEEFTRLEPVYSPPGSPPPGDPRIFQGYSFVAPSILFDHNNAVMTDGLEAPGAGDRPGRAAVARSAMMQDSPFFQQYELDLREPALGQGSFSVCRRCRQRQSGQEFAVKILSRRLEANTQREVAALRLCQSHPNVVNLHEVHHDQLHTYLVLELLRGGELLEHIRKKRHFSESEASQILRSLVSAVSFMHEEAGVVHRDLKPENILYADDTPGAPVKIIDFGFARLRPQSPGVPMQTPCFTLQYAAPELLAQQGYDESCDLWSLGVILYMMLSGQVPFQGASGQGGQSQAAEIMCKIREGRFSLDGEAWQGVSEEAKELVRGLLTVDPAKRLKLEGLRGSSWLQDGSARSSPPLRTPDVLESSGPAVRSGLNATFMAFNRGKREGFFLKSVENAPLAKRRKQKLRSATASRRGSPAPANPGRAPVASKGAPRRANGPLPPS

Rattus norvegicus [23] = test: Inhibition of LPS-induced IL-6 production in po dosed rat serum administered 30 mins before LPS challenge measured after […] by ELISA; assay type: functional, organism-based
[24] = target: Mitogen-activated protein kinase 9 (Homo sapiens) (UniProt P45984); test: Inhibition of JNK2 at 10 uM
[25] = target: T2, Ribosomal protein S6 kinase alpha-3; test: Inhibition of RSK2
[26] = Cmax in Beagle dog at 5 mg/kg, po; assay type: ADME, organism-based, Canis lupus familiaris; parameters: dose 5 mg/kg, route oral; conditions: in vivo
[27] = Aqueous solubility of the compound in phosphate buffer at pH 6.5; assay type: physicochemical
[28] = Tmax in Hanover-Wistar rat at 5 mg/kg, po; assay type: ADME, organism-based; parameters: dose 5 mg/kg, route oral; conditions: in vivo
[29] = Tmax in Beagle dog at 5 mg/kg, po; assay type: ADME, organism-based, Canis lupus familiaris; parameters: dose 5 mg/kg, route oral; conditions: in vivo
[30] = Oral bioavailability in Beagle dog at 5 mg/kg; assay type: ADME, organism-based, Canis lupus familiaris; conditions: in vivo
[31] = Volume of distribution at steady state in Beagle dog at 5 mg/kg, iv; assay type: ADME, organism-based, Canis lupus familiaris; parameters: dose 5 mg/kg, route intravenous; conditions: in vivo, read-out: Vdss
Cytochrome P450 2D6 = Cytochrome P450 2D6 (Homo sapiens, UniProt P10635); test: Inhibition of human CYP2D6; assay type: ADME
Cytochrome P450 2C9 = Cytochrome P450 2C9 (Homo sapiens, UniProt P11712); test: Inhibition of human CYP2C9; assay type: ADME
[32] = Plasma protein binding in Hanover-Wistar rat by untrafiltration method; assay type: ADME, cell-free; conditions: read-out: PPB (converted)
[33] = Plasma protein binding in cynomolgus monkey by untrafiltration method; assay type: ADME, cell-free, Macaca fascicularis; conditions: read-out: PPB (converted)
[34] = target: T3, Atypical kinase COQ8A, mitochondrial; test: Inhibition of ADCK3
[35] = Clearance in cynomolgus monkey at 5 mg/kg, iv; assay type: ADME, organism-based, Macaca fascicularis; parameters: dose 5 mg/kg, route intravenous; conditions: in vivo
[36] = target: Serine/threonine-protein kinase 36 (Homo sapiens, UniProt Q9NRP7); test: Inhibition of STK36
[37] = Volume of distribution at steady state in Hanover-Wistar rat at 5 mg/kg, iv; assay type: ADME, organism-based; parameters: dose 5 mg/kg, route intravenous; conditions: in vivo, read-out: Vdss
[38] = target: Cyclin-G-associated kinase (Homo sapiens) (UniProt O14976); test: Inhibition of GAK at 10 uM
Chain of Cyclin-G-associated kinase (Homo sapiens) (O14976 whole entry): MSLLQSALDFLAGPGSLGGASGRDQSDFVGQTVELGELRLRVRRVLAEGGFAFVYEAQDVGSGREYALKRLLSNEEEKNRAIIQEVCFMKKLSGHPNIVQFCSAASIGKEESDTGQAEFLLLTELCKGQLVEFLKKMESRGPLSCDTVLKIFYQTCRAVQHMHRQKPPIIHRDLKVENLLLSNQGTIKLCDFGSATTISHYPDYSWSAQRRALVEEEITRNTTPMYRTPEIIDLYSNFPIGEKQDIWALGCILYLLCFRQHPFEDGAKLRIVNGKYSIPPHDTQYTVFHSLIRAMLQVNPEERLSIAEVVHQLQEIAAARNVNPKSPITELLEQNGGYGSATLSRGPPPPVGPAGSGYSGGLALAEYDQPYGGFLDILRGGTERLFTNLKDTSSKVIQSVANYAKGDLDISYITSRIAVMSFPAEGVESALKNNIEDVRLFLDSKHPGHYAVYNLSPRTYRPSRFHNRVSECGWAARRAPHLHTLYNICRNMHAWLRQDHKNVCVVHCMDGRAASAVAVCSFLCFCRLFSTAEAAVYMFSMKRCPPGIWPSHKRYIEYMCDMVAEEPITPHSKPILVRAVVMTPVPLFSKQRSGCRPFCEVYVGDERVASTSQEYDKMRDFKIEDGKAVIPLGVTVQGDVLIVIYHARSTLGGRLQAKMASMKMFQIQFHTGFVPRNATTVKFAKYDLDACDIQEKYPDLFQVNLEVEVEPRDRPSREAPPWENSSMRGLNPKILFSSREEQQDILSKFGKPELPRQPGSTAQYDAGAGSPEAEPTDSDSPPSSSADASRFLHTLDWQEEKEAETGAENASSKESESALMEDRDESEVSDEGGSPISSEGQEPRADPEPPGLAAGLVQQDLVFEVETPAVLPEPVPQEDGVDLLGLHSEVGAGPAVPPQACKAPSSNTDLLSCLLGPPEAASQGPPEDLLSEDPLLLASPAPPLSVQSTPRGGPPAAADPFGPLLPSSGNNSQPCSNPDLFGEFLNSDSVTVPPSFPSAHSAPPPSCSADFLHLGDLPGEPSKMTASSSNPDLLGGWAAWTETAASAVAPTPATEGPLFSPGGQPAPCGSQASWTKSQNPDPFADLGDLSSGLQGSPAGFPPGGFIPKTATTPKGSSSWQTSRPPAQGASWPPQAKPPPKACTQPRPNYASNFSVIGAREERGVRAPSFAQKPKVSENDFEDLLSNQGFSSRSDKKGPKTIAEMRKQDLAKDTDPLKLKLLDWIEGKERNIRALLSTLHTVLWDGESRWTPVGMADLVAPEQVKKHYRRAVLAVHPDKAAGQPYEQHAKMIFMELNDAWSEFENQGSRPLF

[39] = target: Mitogen-activated protein kinase 8 (Homo sapiens) (UniProt P45983); test: Inhibition of JNK1 at 10 uM
Chain of Mitogen-activated protein kinase 8 (Homo sapiens) (P45983 whole entry): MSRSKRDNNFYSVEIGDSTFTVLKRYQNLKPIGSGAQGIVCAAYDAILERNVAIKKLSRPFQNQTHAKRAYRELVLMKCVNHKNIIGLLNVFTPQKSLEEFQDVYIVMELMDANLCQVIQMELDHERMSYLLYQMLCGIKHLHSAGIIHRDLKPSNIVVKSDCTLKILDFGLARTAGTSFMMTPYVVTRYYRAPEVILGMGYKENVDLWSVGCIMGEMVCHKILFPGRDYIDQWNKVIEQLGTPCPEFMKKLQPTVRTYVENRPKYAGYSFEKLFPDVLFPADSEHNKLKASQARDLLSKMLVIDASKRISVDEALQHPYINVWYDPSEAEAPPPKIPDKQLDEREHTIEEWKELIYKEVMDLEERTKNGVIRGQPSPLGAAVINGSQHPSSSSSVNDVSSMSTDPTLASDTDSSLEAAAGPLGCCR

[40] = Half life in Hanover-Wistar rat at 5 mg/kg, po; assay type: ADME, organism-based; parameters: dose 5 mg/kg, route oral; conditions: in vivo
[41] = target: T1, Epithelial discoidin domain-containing receptor 1; test: Inhibition of DDR1 at 10 uM
Rattus norvegicus [42] = test: Analgesic activity in po dosed rat inflammatory yeast hyperalgesia model assessed as increase in tolerance to pressure; assay type: functional, organism-based
[43] = Half life in cynomolgus monkey at 5 mg/kg, po; assay type: ADME, organism-based, Macaca fascicularis; parameters: dose 5 mg/kg, route oral; conditions: in vivo
[44] = Oral bioavailability in Hanover-Wistar rat at 5 mg/kg; assay type: ADME, organism-based; conditions: in vivo
[45] = Clearance in Beagle dog at 5 mg/kg, iv; assay type: ADME, organism-based, Canis lupus familiaris; parameters: dose 5 mg/kg, route intravenous; conditions: in vivo
[46] = Tmax in cynomolgus monkey at 5 mg/kg, po; assay type: ADME, organism-based, Macaca fascicularis; parameters: dose 5 mg/kg, route oral; conditions: in vivo
[47] = Oral bioavailability in cynomolgus monkey at 5 mg/kg; assay type: ADME, organism-based, Macaca fascicularis; conditions: in vivo

Chain of Cyclin-G-associated kinase (O14976 whole entry): as the sequence (O14976 whole entry) above

SMILES: Cn1c(=O)c(Oc2ccc(F)cc2F)cc2cnc(NC(CCO)CCO)nc21 [PAMAPIMOD]
- inhibition [1]: > 85%
- Cmax [2]: 1860 ng/mL
- Kd [3]: > 1000 nM
- AUC(0-t) [4]: 5220 ng·h/mL
- IC50 (Cytochrome P450 1A2): > 29000 nM
- AUC(0-t) at 24 h [5]: 3130 ng·h/mL
- half-life [6]: 9.18 h
- Papp B→A at 10 µM [7]: 22.6 ×10⁻⁶ cm/s
- inhibition [8]: > 85%
- IC50 (Cytochrome P450 3A4): > 29000 nM
- inhibition in vivo at 3 mg/kg (Rattus norvegicus [9]): 77%
- Kd [10]: > 1000 nM
- AUC(0-t) at 72 h [11]: 9410 ng·h/mL
- Papp A→B at 10 µM [12]: 2.74 ×10⁻⁶ cm/s
- inhibition [13]: > 85%
- IC50 (Cytochrome P450 2C19): > 29000 nM
- clearance [14]: 21 mL/min/kg
- inhibition [15]: > 85%
- Cmax [16]: 1340 ng/mL
- Vd [17]: 20.6 L/kg
- inhibition [18]: > 85%
- inhibition [19]: > 85%
- EC50 (Rattus norvegicus [20]): 270 nM
- ED50 (Rattus norvegicus [20]; po): 1.1 mg/kg
- inhibition [21]: > 85%
- inhibition [22]: > 85%
- EC50 (Rattus norvegicus [23]): 50 nM
- ED50 (Rattus norvegicus [23]; po): 0.1 mg/kg
- inhibition [24]: > 85%
- Kd [25]: 300 nM
- Cmax [26]: 1380 ng/mL
- solubility [27]: 170 µg/mL (≈ 418 µM)
- Tmax [28]: 0.5 h
- Tmax [29]: 0.67 h
- bioavailability [30]: 78.2%
- Vd [31]: 12.7 L/kg
- IC50 (Cytochrome P450 2D6): > 29000 nM
- IC50 (Cytochrome P450 2C9): > 29000 nM
- fraction unbound [32]: 0.171
- fraction unbound [33]: 0.146
- Kd [34]: > 1000 nM
- clearance [35]: 10.8 mL/min/kg
- Kd [36]: > 1000 nM
- Vd [37]: 3.56 L/kg
- inhibition [38]: > 85%
- inhibition [39]: > 85%
- half-life [40]: 4.04 h
- inhibition [41]: > 85%
- Activity (Rattus norvegicus [42]): Dose-dependent effect
- EC50 (Rattus norvegicus [42]): 4300 nM
- ED50 (Rattus norvegicus [42]; po): 20.4 mg/kg
- half-life [43]: 13.8 h
- bioavailability [44]: 80.1%
- clearance [45]: 12.5 mL/min/kg
- Tmax [46]: 1.5 h
- bioavailability [47]: > 100%
